Laboratory results as given in patent publication US20240368145A1, “METHODS FOR TREATING CANCER” (IMMUNIC AG, priority 2021, published 2024).

Key:
[1] = test system: IL-17F; assay: Cytokine assay, human PBMC stimulated with PHA: IL-17F; assay type: cell-based; conditions: PHA-activated, 48 hours, read-out: IL-17F inhibition (IC50 range)
Description: (§1) Peripheral blood mononuclear cells (PBMC) from healthy human donors were purified using Accuspin™ System-Histopaque-1077 (Sigma) according to the protocol recommended by the manufacturer. Purified PBMC were then washed twice with phosphate-buffered saline (PBS) and resuspended in RPMI1640 culture medium supplemented with 10% dialyzed heat inactivated fetal calf serum, 1.5 mM L-glutamine, 100 U penicillin/mL and […] streptomycin/mL (all from PAN Biotech, Aidenbach, Germany). For stimulation, PBMC were seeded at 1×10^5 cells/well, activated with 2 gg/mL phytohaemagglutinin (PHA, Sigma) and incubated with the test compounds for 48 hours. IL-17A, IL-17F and INFγ were then determined in the culture supernatant using a Luminex BioPlex system, following the manufacturer's instructions (BioRad, Munich, Germany). To determine the IC50, compounds were titrated semilogarithmically.
(§2) Cytokines were determined in the aforementioned culture supernatant using the following methods: IL-17A was measured using the human homodimer IL-17A ELISA Ready Set Go Kit from cBioscience (Frankfurt, Germany); IL-17F using the human IL-17F ELI-Pair from Holzel Diagnostica GmbH (K51n, Germany); and IFNγ using the OptEIA human IFN-g ELISA from BD Bioscience (Heidelberg, Germany), all following the manufacturer's instructions.

[2] = test system: IFNγ; assay: Cytokine assay, human PBMC stimulated with PHA: IFNγ; assay type: cell-based; conditions: PHA-activated, 48 hours, read-out: IFNγ inhibition (IC50 range)
Description: as §1, §2

[3] = test system: prostate cancer cell line 22RV1; assay: Oncolead sulforhodamin B growth inhibition, 22RV1; assay type: cell-based; conditions: Homo sapiens, sulforhodamin B assay, 72 and 120 h treatment, read-out: GI50 range 22RV1
Description: (§3) Cell growth was assessed by measuring protein content using sulforhodamin B. Growth inhibition was calculated by (TCMD−T0)/TNCT72h−T0)*100% with TCMD is the tumor growth at 72 h with the respective compound concentration. To is the protein content of the cell line before treatment and TNCT72h is the tumor growth of the DMSO control.

[4] = test system: prostate cancer cell line 22RV1, DU145, LNCAP, PC3 and VCaP; assay: Oncolead profiling in a panel of 5 prostate cancer cell lines (summary); assay type: cell-based; conditions: for inhibition at 30 µM: highest concentration (30 μM), VCaP cell line not included, read-out: average growth inhibition; for growth inhibition: in 4 of 5 prostate cancer cell lines
Description: as §3

[5] = test system: AML cell line MOLM-13; assay: CellTiter-Blue proliferation assay, MOLM-13; assay type: cell-based; conditions: Homo sapiens, geometric mean relative IC50, 72 hours, read-out: IC50 range for cell line MOLM-13
Description: Aim of this study was to evaluate compounds of Example 1, 1/1, 2/2, 2/5 and 2/6 in a proliferation assays. The 5 test compounds were tested in a CellTiter-Blue® based proliferation assay in three AML cell lines (HL-60, THP-1 and MOLM-13). The compounds were tested at 10 concentrations in half-log increments (highest concentration 30 μM or 100 μM) in duplicates. The incubation period with the applied compounds was fixed to 72 hours.

[6] = test system: AR-V7 mRNA; assay: Androgen receptor RNA level expression (qRT-PCR) in 22Rv1: AR-V7; assay type: cell-based; conditions: 22Rv1, 1 μM, 48 h; for mrna remaining at 1 µM: Homo sapiens, normalized to untreated control (vehicle/DMSO)
Description: The prostate cancer cell line 22Rv1 was treated for 48 h with 1 μM Example compound 1, 1/1, 1/2, 2/1, 2/2, 2/3, 2/4, 2/5, 2/6, 2/7, 2/8, 2/9 and 2/10 and the reference compounds SR2211 and XY018 (Nat. Med. 2016; 22:488). RNA was extracted using the RNA isolation kit XS (Macherey-Nagel) and following the manufacture's manual. RNA quantity was measured with the Nanodrop before reverse transcription using Superscript II (Invitrogen #100004925). For the quantitative real-time PCR with SYBR-Green (Qiagen #204074), the following primers were used: AR forward-ACATCAAGGAACTCGATCGTATCATTGC and reverse-TTGGGCACTTGCACAGAGAT, AR-V7: forward-CCATCTTGTCGTCTTCGGAAATGTTATGAAGC and reverse-TTTGAATGAGGCAAGTCAGCCTTTCTT. The qRT-PCR proceeded as follows: denaturation for 5 min 95° C.; 40 cycles of “20 sec at 95° C. and 15 sec at 60° C.” and at the end of the last cycle, the melting temperature of the products was determined by gradually increasing it from 60° C. to 99° C. CT values from all samples were normalized to two different reference (housekeeping) genes using the mean CT value of the GAPDH and YWHAZ (reference genes). Next the values are normalized to the untreated control (vehicle/DMSO).

[7] = test system: AR-FL protein; assay: Androgen receptor protein expression (western blot) in 22Rv1: AR-FL; assay type: cell-based, human; conditions: 22Rv1, 6 μM, 48 h; for AR-FL protein level: western blot quantification
Description: (§4) After 48 h, cell were lysed using cell extraction buffer (Life Technologies #FNN0011) for western blot. […] The membrane is then incubation for 1 hour in blocking buffer (5% milk in 20 mM Tris, 150 mM NaCl, pH 7.5, 0.05% Tween 20 [TBS-T]). After this incubation, the primary antibody is added and incubated overnight at 4° C. After washing, the membrane was incubated with the secondary antibody for 1 h. Visualization of the bands was performed using the femto maximum sensitivity substrate reagent and the luminescence signal recorded with the Fusion FX7 (Vilber). For protein quantification, InageJ was used.

[8] = test system: AR-V7 protein; assay: Androgen receptor protein expression (western blot) in 22Rv1: AR-V7; assay type: cell-based, human; conditions: 22Rv1, 6 μM, 48 h; for AR-V7 protein level: western blot quantification
Description: as §4

[9] = test system: CAMKK2 mRNA; assay: Expression of AR target genes (qRT-PCR) in 22Rv1: CAMKK2; assay type: cell-based; conditions: 22Rv1, 1 μM, 48h; relative to vehicle control (DMSO)
Description: The prostate cancer cell line 22Rv1 was treated for 48h with 1 μM Example compound 1, 1/1, 2/1, 2/2, 2/3, 2/4, 2/5, 2/6, 2/7, 2/8, 2/9 and 2/10 and reference compounds SR2211 and XY018. RNA was extracted using the RNA isolation kit XS (Macherey-Nagel) and following the manufacture's manual. RNA quantity was measured with the Nanodrop before reverse transcription using Superscript II (Invitrogen #100004925). For the quantitative real-time PCR with SYBR-Green (Qiagen #204074), the following primers were used:
qRT-PCR was performed using SYBR-Green (Qiagen #204074) reagents in a PCR cycler (Gorbett Research) Rotor Gene RG3000 with the following program: denaturation for 5′ at 95° C.; 40 cycles of 20″ at 95° C. and 15″ at 60° C.″ and at the end of the last cycle, the melting temperature of the products was determined by gradually increasing from 60° C. to 99° C. CT values from all samples were normalized to reference (housekeeping) genes using the mean CT value of the GAPDH and YWHAZ (reference genes). Next the values are put relative to the untreated control (vehicle/DMSO).

Row | Structure (SMILES) | IC50 [1] [nM] | IC50 [2] [nM] | GI50 [3] [nM] | inhibition at 30 µM [4] [%] | growth inhibition [4] | IC50 [5] [nM] | AR-V7 mRNA expression [6] | mrna remaining at 1 µM [6] [%] | AR-FL protein levels [7] | AR-FL protein level [7] | AR-V7 protein levels [8] | AR-V7 protein level [8] | CAMKK2 mRNA expression [9]
1 | COC(=O)c1c(-c2c(F)cccc2Cl)noc1-c1cnn(-c2cccc(Cl)c2)c1C(F)(F)F [Example 1, Methyl 3-(2-chloro-6-fluorophenyl)-5-(1-(3-chlorophenyl)-5-(trifluoromethyl)-1H-pyrazol-4-yl)isoxazole-4-carboxylate] | < 25 | < 25 | < 25 | 80 | strong growth inhibition | < 10 | strong reduction | 37 | strong reduction | 0.474 | strong reduction | 0.368 | 0.884
2 | CC(C)(O)CCn1ncc(-c2onc(-c3c(F)cccc3Cl)c2-c2ncccn2)c1C(F)(F)F [2/8] | < 25 | < 25 | < 25 | 80 | strong growth inhibition |  | strong reduction | 34.8 | strong reduction | 0.421 | strong reduction | 0.309 | 1.149
3 | Fc1cccc(Cl)c1-c1noc(-c2cnn(-c3cccc(Cl)c3)c2C(F)(F)F)c1-c1nccs1 [Example 1/1] | < 25 | < 25 | < 25 | 80 | strong growth inhibition | < 10 | strong reduction | 39.5 | strong reduction | 0.482 | strong reduction | 0.323 | 0.883
